# Experimental data reported in US7101841B2, “Carbohydrate-specific peptides which have a strong affinity and preparations method thereof” (Korea Institute of Science and Technology, priority 2001, dated 2006).
# pKd: −log10 of the molar value.
# Columns and labels:
# [1] = target: sLeX; experiment: BIAcore measurement of binding capacity of peptides on sLeX-BSA fixed CM5 chip
# Protocol: To measure the binding capacity of peptides, BIAcore was used. CM5 made by gold and protruded with CM-dextran layer and carboxylic acid group was used as a chip. BSA (Oxford Glyco Science, USA) binding with sLeX was used as a ligand for fixing.
# At first, chip surface was stabilized with 100 mM HEPES buffer solution (pH 8.0), and activated with the mixture of 0.4 M EDC (1-ethyl-3-[3′-dimethylaminopropyl]carbodiimide) and 0.1 M NHS (N-hydroxysuccunimide). And then, sodium acetate buffer(10 mM, pH 4.0) containing 0.05 mg/ml of sLeX-BSA or BSA was injected and fixed onto the surface of CM5 chip until the value of RU reached to 6,000. Chip surface remaining active state was substituted with 1.0 M ethanolamine. Target molecules were bound to CM5 chip, and binding buffer (0.01 M HEPES, […], 3 mM EDTA, 0.005% polysorbate 20, pH 7.4) was flowed on the chip surface for equilibration, and finally, bindng capacity was determined by flowing binding buffer containing peptides according to the concentrations. At that time, peptides were combined with their targets with different speed and slope according to the affinity of peptides and target molecules and the affinity between target molecules was measured from the each result. […]
# [2] = test system: sLeX; experiment: Peptide phage library biopanning against sLeX-BSA; assay type: binding; details: after three rounds of biopanning
# Protocol: As described above, in order to obtain molecules having strong binding capacity to carbohydrates using repetitive structure of peptide, sialyl Lewis X (sLeX) existing in tumor cells or inflammation response cells was selected as a target, and a peptide binding to the sLeX well was selected by using peptide phage library and biopanning method. Particularly, sLeX-BSA(Oxford Glycoscience) was added into 0.1 M NaHCO3(pH 8.6) buffer solution until the concentration reached to 100 μg/ml. 150 μl of the above solution(sLeX-BSA 0.1 M NaHCO3) was loaded into one well of 96-well plate, and 150 μl of BSA 0.1 M NaHCO3(pH 8.6) was also loaded into the other well. The well plate was shaken to soak completely, and left for overnight at 4° C. The solution in 96-well plate was washed, followed by adding 200 μl of blocking solution(0.1 M ethanol amine, 0.1 M NaHCO3, pH 8.6) into the wells, and then the plate was left for overnight at 4° C. After blocking solution was removed from the 96-well plate, the plate was washed with 200 μl of TBS-T(50 mM Tris-HCl, pH 7.5, 150 mM NaCl, 0.1% [v/v] Tween-20). […]
# 180 μl of extraction solution was loaded into 3 ml of ER2537 culture solution(OD600=0.2–0.3) and cultured for 4.5 hours at 37° C. while shaking with 250 rpm. […] The amplified phage obtained above was diluted with various concentrations, and the proper concentration was calculated as follows. […]
Substance,"pKd ([1]; BIAcore, sLeX-BSA fixed on CM5 chip, read-out: Kp against sLeX)","strength of binding converted into the height of sensorgram ([1]; peptide flowed at 62.5 μM, sLeX-BSA fixed chip, FIG. 1) [RU]",binding capacity to sLeX relative to other selected peptides [2]
AHWIPRYSSPAT [monomer],1.60,16,–
peptide represented by the SEQ. ID NO.1: peptide composed of 12 amino acids selected by phage display for binding to sLeX (AHWIPRYSSPAT; synthetic peptide which have a strong affinity to carbohydrate),–,–,better than that of the other peptides
